{"source": "BigSolDB 2.1"}
{"smiles": "O=C(O)C(O)c1ccccc1", "note": "(racemic)", "values": [{"measurement": "solubility (mole fraction)", "setting": "in ethanol, 294.65 K", "value": 0.247}, {"measurement": "solubility (mole fraction)", "setting": "in ethanol, 299.45 K", "value": 0.261}, {"measurement": "solubility (mole fraction)", "setting": "in ethanol, 303.85 K", "value": 0.274}, {"measurement": "solubility (mole fraction)", "setting": "in ethanol, 308.25 K", "value": 0.292}, {"measurement": "solubility (mole fraction)", "setting": "in ethanol, 314.65 K", "value": 0.325}, {"measurement": "solubility (mole fraction)", "setting": "in ethanol, 319.15 K", "value": 0.349}, {"measurement": "solubility (mole fraction)", "setting": "in ethanol, 324.85 K", "value": 0.376}, {"measurement": "solubility (mole fraction)", "setting": "in ethanol, 328.55 K", "value": 0.394}, {"measurement": "solubility (mole fraction)", "setting": "in ethanol, 333.45 K", "value": 0.418}, {"measurement": "solubility (mole fraction)", "setting": "in ethanol, 338.15 K", "value": 0.439}, {"measurement": "solubility (mole fraction)", "setting": "in isopropanol, 293.15 K", "value": 0.213}, {"measurement": "solubility (mole fraction)", "setting": "in isopropanol, 298.15 K", "value": 0.236}, {"measurement": "solubility (mole fraction)", "setting": "in isopropanol, 305.15 K", "value": 0.262}, {"measurement": "solubility (mole fraction)", "setting": "in isopropanol, 308.15 K", "value": 0.272}, {"measurement": "solubility (mole fraction)", "setting": "in isopropanol, 313.15 K", "value": 0.294}, {"measurement": "solubility (mole fraction)", "setting": "in isopropanol, 318.15 K", "value": 0.315}, {"measurement": "solubility (mole fraction)", "setting": "in isopropanol, 323.15 K", "value": 0.338}, {"measurement": "solubility (mole fraction)", "setting": "in isopropanol, 328.15 K", "value": 0.362}, {"measurement": "solubility (mole fraction)", "setting": "in isopropanol, 333.15 K", "value": 0.383}, {"measurement": "solubility (mole fraction)", "setting": "in isopropanol, 338.15 K", "value": 0.41}, {"measurement": "solubility (mole fraction)", "setting": "in methanol, 283.15 K", "value": 0.236}, {"measurement": "solubility (mole fraction)", "setting": "in methanol, 288.15 K", "value": 0.243}, {"measurement": "solubility (mole fraction)", "setting": "in methanol, 293.15 K", "value": 0.256}, {"measurement": "solubility (mole fraction)", "setting": "in methanol, 298.15 K", "value": 0.265}, {"measurement": "solubility (mole fraction)", "setting": "in methanol, 304.65 K", "value": 0.281}, {"measurement": "solubility (mole fraction)", "setting": "in methanol, 308.15 K", "value": 0.293}, {"measurement": "solubility (mole fraction)", "setting": "in methanol, 313.15 K", "value": 0.308}, {"measurement": "solubility (mole fraction)", "setting": "in methanol, 318.15 K", "value": 0.323}, {"measurement": "solubility (mole fraction)", "setting": "in n-propanol, 293.15 K", "value": 0.196}, {"measurement": "solubility (mole fraction)", "setting": "in n-propanol, 298.15 K", "value": 0.213}, {"measurement": "solubility (mole fraction)", "setting": "in n-propanol, 305.35 K", "value": 0.237}, {"measurement": "solubility (mole fraction)", "setting": "in n-propanol, 308.15 K", "value": 0.252}, {"measurement": "solubility (mole fraction)", "setting": "in n-propanol, 313.15 K", "value": 0.275}, {"measurement": "solubility (mole fraction)", "setting": "in n-propanol, 318.15 K", "value": 0.3}, {"measurement": "solubility (mole fraction)", "setting": "in n-propanol, 323.15 K", "value": 0.325}, {"measurement": "solubility (mole fraction)", "setting": "in n-propanol, 328.15 K", "value": 0.347}, {"measurement": "solubility (mole fraction)", "setting": "in n-propanol, 333.15 K", "value": 0.368}, {"measurement": "solubility (mole fraction)", "setting": "in n-propanol, 338.15 K", "value": 0.39}, {"measurement": "solubility (mole fraction)", "setting": "in water, 293.15 K", "value": 0.018}, {"measurement": "solubility (mole fraction)", "setting": "in water, 298.15 K", "value": 0.0233}, {"measurement": "solubility (mole fraction)", "setting": "in water, 303.15 K", "value": 0.037}, {"measurement": "solubility (mole fraction)", "setting": "in water, 308.15 K", "value": 0.0656}, {"measurement": "solubility (mole fraction)", "setting": "in water, 313.15 K", "value": 0.11}, {"measurement": "solubility (mole fraction)", "setting": "in water, 318.15 K", "value": 0.16}, {"measurement": "solubility (mole fraction)", "setting": "in water, 323.15 K", "value": 0.206}, {"measurement": "solubility (mole fraction)", "setting": "in water, 328.15 K", "value": 0.237}, {"measurement": "solubility (mole fraction)", "setting": "in water, 333.15 K", "value": 0.278}, {"measurement": "solubility (mole fraction)", "setting": "in water, 338.15 K", "value": 0.317}]}
